Test results as given in the supplement of paper PMC10733146.

Assays:
Assay in all cases: viability relative to DMSO control (fraction); higher = less drug effect (more viable cells)
Conditions in all cases: 48 h
[1] = system: primary AML patient cells (S006)
Procedure, shortened: (§1)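 Primary mononuclear tumour cells (Ficoll-isolated from blood or bone marrow, or processed lymph node; fresh or cryopreserved) were plated at 4 × 10^4 cells per well in 384-well plates with pre-plated compounds at five concentrations, one well each. Medium was RPMI-1640 with penicillin/streptomycin, L-glutamine and human serum, at 37 °C and 5% CO2 for 48 h. Viability was read as CellTiter-Glo luminescence relative to the median of 16 inner DMSO wells.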

[2] = system: primary AML patient cells (S011)
Procedure, shortened: as §1

[3] = system: primary AML patient cells (S012)
Procedure, shortened: as §1

[4] = system: primary AML patient cells (S037)
Procedure, shortened: as §1

[5] = system: primary AML patient cells (S056)
Procedure, shortened: as §1

[6] = system: primary AML patient cells (S081)
Procedure, shortened: as §1

[7] = system: primary AML patient cells (S085)
Procedure, shortened: as §1

[8] = system: primary BL patient cells (S005)
Procedure, shortened: as §1

[9] = system: primary CLL patient cells (S031)
Procedure, shortened: as §1

[10] = system: primary CLL patient cells (S043)
Procedure, shortened: as §1

[11] = system: primary DLBCL patient cells (S049)
Procedure, shortened: as §1

[12] = system: primary DLBCL patient cells (S076)
Procedure, shortened: as §1

[13] = system: primary MCL patient cells (S041)
Procedure, shortened: as §1

[14] = system: primary MCL patient cells (S063)
Procedure, shortened: as §1

[15] = system: primary MCL patient cells (S068)
Procedure, shortened: as §1

[16] = system: primary T-NHL patient cells (S058)
Procedure, shortened: as §1

[17] = system: primary T-PLL patient cells (S008)
Procedure, shortened: as §1

`Nc1ccn([C@@H]2O[C@H](CO)[C@@H](O)[C@@H]2O)c(=O)n1` [Cytarabine] gave a viability ([1]; 0.032 µM) of 1.09, a viability ([1]; 0.16 µM) of 0.996 and a viability ([1]; 0.8 µM) of 0.773. The viability ([1]; 4 µM) was 0.147, the viability ([1]; 20 µM) was 0.0817 and the viability ([2]; 0.032 µM) was 1.52. It also gave a viability ([2]; 0.16 µM) of 1.04, a viability ([2]; 0.8 µM) of 0.942 and a viability ([2]; 4 µM) of 0.681. For the same compound, the viability ([2]; 20 µM) was 0.224, the viability ([3]; 0.032 µM) was 0.99 and the viability ([3]; 0.16 µM) was 0.927. For the same compound, the viability ([3]; 0.8 µM) was 0.985, the viability ([3]; 4 µM) was 0.935 and the viability ([3]; 20 µM) was 0.602. It also gave a viability ([4]; 0.032 µM) of 1.08, a viability ([4]; 0.16 µM) of 1.03 and a viability ([4]; 0.8 µM) of 1.02. For the same compound, the viability ([4]; 4 µM) was 0.666, the viability ([4]; 20 µM) was 0.467 and the viability ([5]; 0.032 µM) was 1.05. The viability ([5]; 0.16 µM) was 1, the viability ([5]; 0.8 µM) was 0.719 and the viability ([5]; 4 µM) was 0.177. The viability ([5]; 20 µM) was 0.0767, the viability ([6]; 0.032 µM) was 1.1 and the viability ([6]; 0.16 µM) was 1.07. The viability ([6]; 0.8 µM) was 1.14, the viability ([6]; 4 µM) was 0.884 and the viability ([6]; 20 µM) was 0.4. For the same compound, the viability ([7]; 0.032 µM) was 1.1, the viability ([7]; 0.16 µM) was 1.02 and the viability ([7]; 0.8 µM) was 0.925. It also gave a viability ([7]; 4 µM) of 0.372, a viability ([7]; 20 µM) of 0.106 and a viability ([8]; 0.032 µM) of 1.03. For the same compound, the viability ([8]; 0.16 µM) was 1.02, the viability ([8]; 0.8 µM) was 0.98 and the viability ([8]; 4 µM) was 0.969. For the same compound, the viability ([8]; 20 µM) was 0.893, the viability ([9]; 0.032 µM) was 1.15 and the viability ([9]; 0.16 µM) was 1.04. For the same compound, the viability ([9]; 0.8 µM) was 0.706, the viability ([9]; 4 µM) was 0.177 and the viability ([9]; 20 µM) was 0.0741. The viability ([10]; 0.032 µM) was 1.1, the viability ([10]; 0.16 µM) was 0.975 and the viability ([10]; 0.8 µM) was 0.707. The viability ([10]; 4 µM) was 0.236, the viability ([10]; 20 µM) was 0.0952 and the viability ([11]; 0.032 µM) was 1.01. It also gave a viability ([11]; 0.16 µM) of 0.886, a viability ([11]; 0.8 µM) of 0.673 and a viability ([11]; 4 µM) of 0.264. The viability ([11]; 20 µM) was 0.143, the viability ([12]; 0.032 µM) was 1.01 and the viability ([12]; 0.16 µM) was 0.793. It also gave a viability ([12]; 0.8 µM) of 0.711, a viability ([12]; 4 µM) of 0.319 and a viability ([12]; 20 µM) of 0.118. It also gave a viability ([13]; 0.032 µM) of 1.08, a viability ([13]; 0.16 µM) of 1 and a viability ([13]; 0.8 µM) of 0.732. For the same compound, the viability ([13]; 4 µM) was 0.21, the viability ([13]; 20 µM) was 0.115 and the viability ([14]; 0.032 µM) was 1.11. The viability ([14]; 0.16 µM) was 1.08, the viability ([14]; 0.8 µM) was 0.957 and the viability ([14]; 4 µM) was 0.489. It also gave a viability ([14]; 20 µM) of 0.238, a viability ([15]; 0.032 µM) of 1.1 and a viability ([15]; 0.16 µM) of 1.01. For the same compound, the viability ([15]; 0.8 µM) was 0.807, the viability ([15]; 4 µM) was 0.38 and the viability ([15]; 20 µM) was 0.209. It also gave a viability ([16]; 0.032 µM) of 0.81, a viability ([16]; 0.16 µM) of 0.397 and a viability ([16]; 0.8 µM) of 0.237. For the same compound, the viability ([16]; 4 µM) was 0.166, the viability ([16]; 20 µM) was 0.108 and the viability ([17]; 0.032 µM) was 1.05. The viability ([17]; 0.16 µM) was 0.968, the viability ([17]; 0.8 µM) was 0.876 and the viability ([17]; 4 µM) was 0.434. It also gave a viability ([17]; 20 µM) of 0.209.

`CS(=O)(=O)c1ccc(C(=O)Nc2ccc(Cl)c(-c3ccccn3)c2)c(Cl)c1` [Vismodegib] was tested, and the viability ([1]; 0.024 µM) was 0.902, the viability ([1]; 0.12 µM) was 0.951 and the viability ([1]; 0.6 µM) was 0.886. For the same compound, the viability ([1]; 3 µM) was 0.885, the viability ([1]; 15 µM) was 0.954 and the viability ([2]; 0.024 µM) was 0.771. It also gave a viability ([2]; 0.12 µM) of 0.871, a viability ([2]; 0.6 µM) of 1.11 and a viability ([2]; 3 µM) of 0.914. The viability ([2]; 15 µM) was 0.92, the viability ([3]; 0.024 µM) was 0.993 and the viability ([3]; 0.12 µM) was 1. It also gave a viability ([3]; 0.6 µM) of 0.995, a viability ([3]; 3 µM) of 0.936 and a viability ([3]; 15 µM) of 1. It also gave a viability ([4]; 0.024 µM) of 0.927, a viability ([4]; 0.12 µM) of 0.979 and a viability ([4]; 0.6 µM) of 0.91. For the same compound, the viability ([4]; 3 µM) was 0.958, the viability ([4]; 15 µM) was 1.02 and the viability ([5]; 0.024 µM) was 0.986. It also gave a viability ([5]; 0.12 µM) of 1.07, a viability ([5]; 0.6 µM) of 0.913 and a viability ([5]; 3 µM) of 0.783. The viability ([5]; 15 µM) was 0.845, the viability ([6]; 0.024 µM) was 0.926 and the viability ([6]; 0.12 µM) was 0.946. It also gave a viability ([6]; 0.6 µM) of 0.915, a viability ([6]; 3 µM) of 0.923 and a viability ([6]; 15 µM) of 1. The viability ([7]; 0.024 µM) was 0.89, the viability ([7]; 0.12 µM) was 0.925 and the viability ([7]; 0.6 µM) was 0.928. It also gave a viability ([7]; 3 µM) of 0.952, a viability ([7]; 15 µM) of 1.05 and a viability ([8]; 0.024 µM) of 1.12. It also gave a viability ([8]; 0.12 µM) of 0.893, a viability ([8]; 0.6 µM) of 1.12 and a viability ([8]; 3 µM) of 1.14. The viability ([8]; 15 µM) was 0.824, the viability ([9]; 0.024 µM) was 0.85 and the viability ([9]; 0.12 µM) was 0.996. The viability ([9]; 0.6 µM) was 0.889, the viability ([9]; 3 µM) was 0.867 and the viability ([9]; 15 µM) was 0.897. For the same compound, the viability ([10]; 0.024 µM) was 0.915, the viability ([10]; 0.12 µM) was 0.903 and the viability ([10]; 0.6 µM) was 0.923. The viability ([10]; 3 µM) was 0.922, the viability ([10]; 15 µM) was 0.965 and the viability ([11]; 0.024 µM) was 0.909. The viability ([11]; 0.12 µM) was 0.939, the viability ([11]; 0.6 µM) was 0.887 and the viability ([11]; 3 µM) was 0.878. The viability ([11]; 15 µM) was 0.887, the viability ([12]; 0.024 µM) was 1.01 and the viability ([12]; 0.12 µM) was 1.07. For the same compound, the viability ([12]; 0.6 µM) was 1.07, the viability ([12]; 3 µM) was 1.05 and the viability ([12]; 15 µM) was 1.01. The viability ([13]; 0.024 µM) was 0.934, the viability ([13]; 0.12 µM) was 0.973 and the viability ([13]; 0.6 µM) was 0.935. The viability ([13]; 3 µM) was 0.969, the viability ([13]; 15 µM) was 0.984 and the viability ([14]; 0.024 µM) was 0.93. It also gave a viability ([14]; 0.12 µM) of 0.956, a viability ([14]; 0.6 µM) of 0.911 and a viability ([14]; 3 µM) of 0.925. It also gave a viability ([14]; 15 µM) of 0.921, a viability ([15]; 0.024 µM) of 0.891 and a viability ([15]; 0.12 µM) of 0.929. The viability ([15]; 0.6 µM) was 0.949, the viability ([15]; 3 µM) was 0.992 and the viability ([15]; 15 µM) was 1.07. It also gave a viability ([16]; 0.024 µM) of 0.913, a viability ([16]; 0.12 µM) of 0.978 and a viability ([16]; 0.6 µM) of 0.953. For the same compound, the viability ([16]; 3 µM) was 0.926, the viability ([16]; 15 µM) was 1.01 and the viability ([17]; 0.024 µM) was 0.941. For the same compound, the viability ([17]; 0.12 µM) was 0.932, the viability ([17]; 0.6 µM) was 0.983 and the viability ([17]; 3 µM) was 0.938. The viability ([17]; 15 µM) was 0.926.
